Key:
Assay in all cases: biochemical
Set-up in all cases: KinomeScan competition binding panel (DiscoveRx), percent of control at 1 uM
Settings in all cases: read-out: Percent Control
[1] = molecular target: CLK4 (Homo sapiens, UniProt Q9HAZ1)
Procedure, shortened: (§1)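 KinomeScan technology used to profile binding across a panel of 456 kinases and mutants.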

[2] = molecular target: EPHA6 (Homo sapiens, UniProt Q9UF33)
Procedure, shortened: as §1

[3] = molecular target: PRKX (Homo sapiens, UniProt P51817)
Procedure, shortened: as §1

[4] = molecular target: T1, ERK5 (Homo sapiens, UniProt Q13164)
T1 construct: gene MAPK7
Procedure, shortened: as §1

[5] = molecular target: AURKB (Homo sapiens, UniProt Q96GD4)
Procedure, shortened: as §1

[6] = molecular target: PLK4 (Homo sapiens, UniProt O00444)
Procedure, shortened: as §1

[7] = molecular target: T2, MST4 (Homo sapiens, UniProt Q9P289)
T2 construct: gene STK26
Procedure, shortened: as §1

[8] = molecular target: KIT(D816V) (Homo sapiens, UniProt P10721, D816V)
Procedure, shortened: as §1

[9] = molecular target: CSF1R-autoinhibited (Homo sapiens, UniProt P07333)
Procedure, shortened: as §1

[10] = molecular target: IRAK4 (Homo sapiens, UniProt Q9NWZ3)
Procedure, shortened: as §1

[11] = molecular target: EPHA8 (Homo sapiens, UniProt P29322)
Procedure, shortened: as §1

[12] = molecular target: T3, MRCKB (Homo sapiens, UniProt Q9Y5S2)
T3 construct: gene CDC42BPB
Procedure, shortened: as §1

[13] = molecular target: PHKG1 (Homo sapiens, UniProt Q16816)
Procedure, shortened: as §1

[14] = molecular target: T4, SGK (Homo sapiens, UniProt O00141)
T4 construct: gene SGK1
Procedure, shortened: as §1

[15] = molecular target: T5, MST3 (Homo sapiens, UniProt Q9Y6E0)
T5 construct: gene STK24
Procedure, shortened: as §1

[16] = molecular target: INSR (Homo sapiens, UniProt P06213)
Procedure, shortened: as §1

[17] = molecular target: FLT1 (Homo sapiens, UniProt P17948)
Procedure, shortened: as §1

[18] = molecular target: RET(M918T) (Homo sapiens, UniProt P07949, M918T)
Procedure, shortened: as §1

[19] = molecular target: T6, DMPK2 (Homo sapiens, UniProt Q6DT37)
T6 construct: gene CDC42BPG
Procedure, shortened: as §1

[20] = molecular target: ERBB3 (Homo sapiens, UniProt P21860)
Procedure, shortened: as §1

[21] = molecular target: CDK3 (Homo sapiens, UniProt Q00526)
Procedure, shortened: as §1

[22] = molecular target: DAPK1 (Homo sapiens, UniProt P53355)
Procedure, shortened: as §1

[23] = molecular target: T7, LZK (Homo sapiens, UniProt O43283)
T7 construct: gene MAP3K13
Procedure, shortened: as §1

[24] = molecular target: CDKL1 (Homo sapiens, UniProt Q00532)
Procedure, shortened: as §1

[25] = molecular target: ALK(L1196M) (Homo sapiens, UniProt Q9UM73, L1196M)
Procedure, shortened: as §1

Chain of KIT(D816V) (P10721 whole entry D816V): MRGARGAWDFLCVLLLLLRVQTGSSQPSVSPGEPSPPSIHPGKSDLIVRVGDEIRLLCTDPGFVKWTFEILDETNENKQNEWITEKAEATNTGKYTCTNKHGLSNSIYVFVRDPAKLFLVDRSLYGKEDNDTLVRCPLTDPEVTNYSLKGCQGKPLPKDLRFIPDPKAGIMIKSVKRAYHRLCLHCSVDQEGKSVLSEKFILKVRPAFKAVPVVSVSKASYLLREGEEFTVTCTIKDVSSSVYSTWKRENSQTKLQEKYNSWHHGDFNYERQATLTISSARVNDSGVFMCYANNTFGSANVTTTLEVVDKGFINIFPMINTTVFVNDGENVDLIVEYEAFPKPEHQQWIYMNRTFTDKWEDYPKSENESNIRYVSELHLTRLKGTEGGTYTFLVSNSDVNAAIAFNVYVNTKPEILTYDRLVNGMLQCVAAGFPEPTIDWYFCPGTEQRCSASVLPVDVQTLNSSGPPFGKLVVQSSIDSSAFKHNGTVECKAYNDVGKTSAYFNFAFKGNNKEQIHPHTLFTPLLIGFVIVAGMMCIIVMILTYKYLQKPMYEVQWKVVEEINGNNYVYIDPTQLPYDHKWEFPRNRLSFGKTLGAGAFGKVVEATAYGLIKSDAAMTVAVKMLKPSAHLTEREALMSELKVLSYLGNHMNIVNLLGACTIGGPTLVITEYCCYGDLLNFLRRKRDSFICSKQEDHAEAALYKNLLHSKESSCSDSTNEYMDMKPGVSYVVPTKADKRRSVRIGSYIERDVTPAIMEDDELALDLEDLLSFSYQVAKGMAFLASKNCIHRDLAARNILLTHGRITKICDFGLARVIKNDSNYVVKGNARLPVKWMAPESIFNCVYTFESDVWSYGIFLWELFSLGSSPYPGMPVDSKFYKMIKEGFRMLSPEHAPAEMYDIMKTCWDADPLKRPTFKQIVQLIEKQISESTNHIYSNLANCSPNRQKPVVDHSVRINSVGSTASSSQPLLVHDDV
Chain of CDK3 (Q00526 whole entry): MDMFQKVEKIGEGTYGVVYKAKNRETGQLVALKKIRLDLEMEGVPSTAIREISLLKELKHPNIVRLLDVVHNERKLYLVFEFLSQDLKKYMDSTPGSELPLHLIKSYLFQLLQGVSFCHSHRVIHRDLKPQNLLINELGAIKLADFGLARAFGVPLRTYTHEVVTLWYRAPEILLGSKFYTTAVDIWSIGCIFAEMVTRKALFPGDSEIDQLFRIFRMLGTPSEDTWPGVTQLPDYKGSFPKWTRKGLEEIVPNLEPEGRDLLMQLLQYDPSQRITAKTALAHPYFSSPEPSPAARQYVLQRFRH
Chain of PHKG1 (Q16816 whole entry): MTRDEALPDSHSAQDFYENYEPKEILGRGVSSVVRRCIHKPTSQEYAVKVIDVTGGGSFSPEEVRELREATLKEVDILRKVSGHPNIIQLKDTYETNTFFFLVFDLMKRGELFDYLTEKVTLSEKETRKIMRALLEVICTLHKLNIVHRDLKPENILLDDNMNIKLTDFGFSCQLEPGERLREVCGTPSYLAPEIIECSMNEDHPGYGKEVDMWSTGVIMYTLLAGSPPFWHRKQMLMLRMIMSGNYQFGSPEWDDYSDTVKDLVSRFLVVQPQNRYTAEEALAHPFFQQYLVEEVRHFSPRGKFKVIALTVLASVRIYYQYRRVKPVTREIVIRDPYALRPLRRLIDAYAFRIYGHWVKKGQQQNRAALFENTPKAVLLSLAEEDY
T7 sequence (O43283 whole entry): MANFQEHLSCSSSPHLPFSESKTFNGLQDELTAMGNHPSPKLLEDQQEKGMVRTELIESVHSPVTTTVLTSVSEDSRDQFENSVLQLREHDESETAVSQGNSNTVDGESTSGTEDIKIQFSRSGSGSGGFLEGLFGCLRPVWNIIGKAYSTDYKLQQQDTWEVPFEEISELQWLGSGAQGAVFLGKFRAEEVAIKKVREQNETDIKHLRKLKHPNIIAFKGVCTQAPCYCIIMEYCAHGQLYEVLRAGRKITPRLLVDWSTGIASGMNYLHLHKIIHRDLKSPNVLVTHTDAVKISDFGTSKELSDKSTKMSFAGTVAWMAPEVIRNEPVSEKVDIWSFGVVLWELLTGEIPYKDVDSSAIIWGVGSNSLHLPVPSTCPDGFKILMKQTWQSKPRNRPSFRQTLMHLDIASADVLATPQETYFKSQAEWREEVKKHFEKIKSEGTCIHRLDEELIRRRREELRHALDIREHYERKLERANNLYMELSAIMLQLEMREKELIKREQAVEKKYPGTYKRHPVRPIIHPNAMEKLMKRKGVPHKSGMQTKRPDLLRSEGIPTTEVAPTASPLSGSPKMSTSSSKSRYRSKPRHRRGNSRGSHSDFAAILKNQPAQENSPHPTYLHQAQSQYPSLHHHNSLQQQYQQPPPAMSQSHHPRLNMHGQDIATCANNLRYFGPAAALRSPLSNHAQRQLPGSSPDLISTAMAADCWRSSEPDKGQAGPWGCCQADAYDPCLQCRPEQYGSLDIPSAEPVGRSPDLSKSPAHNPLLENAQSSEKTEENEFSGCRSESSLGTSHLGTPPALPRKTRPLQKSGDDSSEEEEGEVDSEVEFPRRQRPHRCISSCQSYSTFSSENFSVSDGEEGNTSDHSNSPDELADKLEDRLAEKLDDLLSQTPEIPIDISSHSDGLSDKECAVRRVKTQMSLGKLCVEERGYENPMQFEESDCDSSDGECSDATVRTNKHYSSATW
Chain of ERBB3 (P21860 whole entry): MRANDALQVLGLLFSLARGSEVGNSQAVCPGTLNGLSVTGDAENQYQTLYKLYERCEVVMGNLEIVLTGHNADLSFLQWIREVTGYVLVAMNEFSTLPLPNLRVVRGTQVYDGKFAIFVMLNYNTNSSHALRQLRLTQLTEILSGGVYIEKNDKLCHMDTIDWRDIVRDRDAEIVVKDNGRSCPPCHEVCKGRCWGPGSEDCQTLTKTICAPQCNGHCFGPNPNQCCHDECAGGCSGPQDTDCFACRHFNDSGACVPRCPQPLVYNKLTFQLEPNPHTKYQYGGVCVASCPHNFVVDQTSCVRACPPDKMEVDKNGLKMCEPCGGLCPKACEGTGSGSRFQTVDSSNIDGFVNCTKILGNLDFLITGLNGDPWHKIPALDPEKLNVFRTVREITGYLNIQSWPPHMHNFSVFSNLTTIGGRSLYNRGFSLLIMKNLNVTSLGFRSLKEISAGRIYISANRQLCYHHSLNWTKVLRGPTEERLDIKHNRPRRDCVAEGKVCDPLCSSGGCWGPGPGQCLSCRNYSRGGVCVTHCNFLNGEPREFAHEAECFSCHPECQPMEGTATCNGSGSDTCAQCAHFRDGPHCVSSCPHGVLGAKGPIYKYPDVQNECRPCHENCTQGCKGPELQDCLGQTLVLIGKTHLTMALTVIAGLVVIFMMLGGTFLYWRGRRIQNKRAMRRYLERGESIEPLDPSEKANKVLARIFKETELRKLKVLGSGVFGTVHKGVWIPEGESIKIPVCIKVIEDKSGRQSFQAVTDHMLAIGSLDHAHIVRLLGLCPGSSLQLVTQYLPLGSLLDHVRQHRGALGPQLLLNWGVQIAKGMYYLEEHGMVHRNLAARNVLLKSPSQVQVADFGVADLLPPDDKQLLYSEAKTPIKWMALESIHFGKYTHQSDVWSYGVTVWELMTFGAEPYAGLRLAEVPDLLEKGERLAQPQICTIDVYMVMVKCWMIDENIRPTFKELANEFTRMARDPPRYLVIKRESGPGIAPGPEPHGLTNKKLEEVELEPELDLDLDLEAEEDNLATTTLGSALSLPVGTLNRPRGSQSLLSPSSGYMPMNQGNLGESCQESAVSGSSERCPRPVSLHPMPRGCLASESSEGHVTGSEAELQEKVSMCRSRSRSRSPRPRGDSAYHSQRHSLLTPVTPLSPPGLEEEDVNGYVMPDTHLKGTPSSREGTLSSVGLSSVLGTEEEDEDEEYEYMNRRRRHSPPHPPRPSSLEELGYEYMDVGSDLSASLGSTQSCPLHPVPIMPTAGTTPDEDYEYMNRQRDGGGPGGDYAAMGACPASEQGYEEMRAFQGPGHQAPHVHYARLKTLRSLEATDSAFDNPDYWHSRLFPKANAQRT
T5 sequence (Q9Y6E0 whole entry): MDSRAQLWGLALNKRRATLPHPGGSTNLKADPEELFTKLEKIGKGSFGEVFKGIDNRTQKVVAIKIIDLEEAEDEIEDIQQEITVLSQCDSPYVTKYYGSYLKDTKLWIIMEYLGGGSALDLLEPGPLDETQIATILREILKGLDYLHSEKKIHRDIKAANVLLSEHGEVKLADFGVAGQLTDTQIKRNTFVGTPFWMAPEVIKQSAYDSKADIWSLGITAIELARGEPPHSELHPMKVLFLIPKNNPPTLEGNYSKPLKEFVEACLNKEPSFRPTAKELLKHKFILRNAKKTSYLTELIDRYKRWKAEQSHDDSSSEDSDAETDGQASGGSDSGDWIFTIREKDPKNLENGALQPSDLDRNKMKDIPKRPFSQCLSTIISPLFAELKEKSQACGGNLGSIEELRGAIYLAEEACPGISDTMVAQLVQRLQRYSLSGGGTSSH
Chain of AURKB (Q96GD4 whole entry): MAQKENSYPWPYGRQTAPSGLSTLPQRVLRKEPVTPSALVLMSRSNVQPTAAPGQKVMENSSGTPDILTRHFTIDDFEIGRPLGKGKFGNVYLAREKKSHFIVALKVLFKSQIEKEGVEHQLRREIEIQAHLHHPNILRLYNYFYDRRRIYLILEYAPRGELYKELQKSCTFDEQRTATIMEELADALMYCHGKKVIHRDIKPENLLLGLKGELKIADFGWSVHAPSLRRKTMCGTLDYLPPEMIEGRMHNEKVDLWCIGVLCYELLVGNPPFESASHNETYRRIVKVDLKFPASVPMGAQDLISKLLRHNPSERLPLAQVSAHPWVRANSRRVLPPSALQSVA

C=CC(=O)Nc1cc(-n2c(=O)ccc3cnc4ccc(-n5cccn5)cc4c32)ccc1C [CHMFL-BTK-11]
remaining binding at 1 µM [1]: 90%
remaining binding at 1 µM [2]: 100%
remaining binding at 1 µM [3]: 100%
remaining binding at 1 µM [4]: 100%
remaining binding at 1 µM [5]: 94%
remaining binding at 1 µM [6]: 56%
remaining binding at 1 µM [7]: 96%
remaining binding at 1 µM [8]: 97%
remaining binding at 1 µM [9]: 70%
remaining binding at 1 µM [10]: 82%
remaining binding at 1 µM [11]: 92%
remaining binding at 1 µM [12]: 100%
remaining binding at 1 µM [13]: 100%
remaining binding at 1 µM [14]: 65%
remaining binding at 1 µM [15]: 100%
remaining binding at 1 µM [16]: 82%
remaining binding at 1 µM [17]: 88%
remaining binding at 1 µM [18]: 100%
remaining binding at 1 µM [19]: 99%
remaining binding at 1 µM [20]: 90%
remaining binding at 1 µM [21]: 100%
remaining binding at 1 µM [22]: 100%
remaining binding at 1 µM [23]: 100%
remaining binding at 1 µM [24]: 93%
remaining binding at 1 µM [25]: 88%

Source: paper PMC5428509, “Irreversible inhibition of BTK kinase by a novel highly selective inhibitor CHMFL-BTK-11 suppresses inflammatory response in rheumatoid arthritis model” (Scientific Reports, 2017)
